Results on one compound are retold here after patent publication US20080280911A1, “Cinnoline Compounds as Inhibitors of Phosphodiesterase Type IV (Pde4)” (Glaxo Group Limited, priority 2005, published 2008).

The assay deals with T1, PDE4B (human recombinant) enzyme (Homo sapiens, UniProt Q07343).
T1 construct: made in house; host or cells: Saccharomyces cerevisiae strain GL62 (PDE-deficient yeast), as described in WO 94/20079
Briefly: Inhibition of PDE4B catalytic activity, IMAP fluorescence polarisation (FP) assay. Type of assay: biochemical. Particulars: inhibition of catalytic activity at PDE4B (human recombinant); FP assay described above or similar. The source says: Human recombinant PDE4B, in particular the 2B splice variant thereof (HSPDE4B2B), is disclosed in WO 94/20079 and also in M. M. McLaughlin et al., “A low Km, rolipram-sensitive, cAMP-specific phosphodiesterase from human brain: cloning and expression of cDNA, biochemical characterisation of recombinant protein, and tissue distribution of mRNA”, J. Biol. Chem., 1993, 268, 6470-6476. For example, in Example 1 of WO 94/20079, human recombinant PDE4B is described as being expressed in the PDE-deficient yeast Saccharomyces cerevisiae strain GL62, e.g. after induction by addition of 150 uM CuSO4, and 100,000×g supernatant fractions of yeast cell lysates are described for use in the harvesting of PDE4B enzyme.
The ability of compounds to inhibit PDE catalytic activity was determined by IMAP Fluorescence Polarisation (FP) assay (Molecular Devices Ltd code: R8062) in 384-well format. […]
For the PDE3, PDE4B and PDE4D assays Fluorescein adenosine 3′,5′-cyclic phosphate (Molecular Devices Ltd code: R7091) was added to give ˜40 nM final concentration. […] The FP ratio of parallel to perpendicular light was measured using an Analyst™ plate reader (from Molecular Devices Ltd). […] Curves were analysed using ActivityBase and XLfit (ID Business Solutions Limited). Results were expressed as pIC50 values.
In general terms: In fluorescence polarisation assays a small probe gives low polarisation when free and higher when bound to something large.

T1 sequence (Q07343 1-564 isoform Q07343-2): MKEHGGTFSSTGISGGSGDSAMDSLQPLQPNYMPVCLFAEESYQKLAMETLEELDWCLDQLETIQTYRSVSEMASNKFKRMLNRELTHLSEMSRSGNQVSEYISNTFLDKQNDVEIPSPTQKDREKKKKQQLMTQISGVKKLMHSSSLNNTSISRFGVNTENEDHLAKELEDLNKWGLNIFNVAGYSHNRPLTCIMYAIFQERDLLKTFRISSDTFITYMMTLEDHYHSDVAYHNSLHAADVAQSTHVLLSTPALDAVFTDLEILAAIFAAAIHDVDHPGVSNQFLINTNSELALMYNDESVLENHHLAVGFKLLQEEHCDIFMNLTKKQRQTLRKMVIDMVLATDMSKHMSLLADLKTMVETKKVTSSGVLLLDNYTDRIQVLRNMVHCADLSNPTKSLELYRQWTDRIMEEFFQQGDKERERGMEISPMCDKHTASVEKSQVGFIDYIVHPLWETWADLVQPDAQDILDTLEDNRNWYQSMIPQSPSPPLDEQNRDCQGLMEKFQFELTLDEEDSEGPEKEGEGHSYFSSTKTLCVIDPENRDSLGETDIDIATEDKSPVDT

As usually defined, the IC50 is the concentration at which inhibition is half-maximal. For `Cc1cc(S(C)(=O)=O)cc2c(Nc3cccc(C#N)c3)c(C(N)=O)nnc12` [Example 1, 4-[(3-Cyanophenyl)amino]-8-methyl-6-(methylsulfonyl)-3-cinnolinecarboxamide], the IC50 was about 0.1 nM.
